The conditions of data set [1]: single surfactant; cited from earlier work.
For data set [2], the system named is pig eyes with intact epithelium. Nature of the data set: Relative fluorescence (F/Fo) of cross-linked corneal flaps, surfactants in riboflavin solution (Study 4). Here is the method:
Pig eyes shipped overnight on ice from an abattoir (SiouxPreme, Sioux City, IA) were rinsed in saline. The eyes with intact epithelium were soaked with one of the test solutions below for 20 minutes in an incubator set at 37° C. by using a rubber ring to hold the solution on top.
For a Group A of the pig eyes, the following riboflavin formulations were used: • (a1) 0.25% riboflavin solution containing BAC (PARACEL™, Avedro, Inc., Waltham, MA); • (a2) 0.1% w.v. riboflavin solution containing saline (PHOTREXA ZD™ Avedro, Inc., Waltham, MA) with added riboflavin to match the riboflavin content (0.25%) in solution (a1); • (a3) solution (a2) with 1% Polidocanol; • (a4) solution (a2) with 5% Polidocanol; and • (a5) solution (a2) with 10% Polidocanol.
The epitheliums of eyes in Group A were removed with a dull blade after the eyes were soaked in one of the solutions and irradiated pan-corneally on air with a top hat beam (3% root mean square) for 4 minutes with 365-nm light source (UV LED NCSU033B[T]; Nichia Co., Tokushima, Japan) at a chosen irradiance of 30 mW/cm^2 which was measured with a power sensor (model PD-300-UV; Ophir, Inc., Jerusalem, Israel) at the corneal surface. Corneal flaps (approximately 200 μm thick) were excised from the eyes with aid of an Intralase femtosecond laser (Abbot Medical Optics, Santa Ana, CA). The average thickness of the corneal flaps was calculated as a difference between the measurements before and after the excision from the eyes with an ultrasonic Pachymeter (DGH Technology, Exton, PA). The flaps were washed with distilled water and dried in a vacuum until the weight change became less than 10% (Rotary vane vacuum pump RV3 A652-01-903, BOC Edwards, West Sussex, UK). […] Papain digests were diluted 0.5 times with 1×BBBS and fluorescence of the solutions was measured with excitation of 360 nm in a QM-40 Spectrofluorometer (Photon Technology Int., London, Ontario, Canada). The fluorescence of the papain buffer was taken into account by measuring fluorescence in the absence of tissue and subtracting this value from the fluorescence of the samples. […]

Where [3] appears, read: in riboflavin solution, pig eyes.

“Also recorded” adds a separate entry of the source.

For the molecule `CCCCCCCCCc1ccc(OCCOCCOCCOCCOCCOCCOCCOCCOCCO)cc1` [IGEPAL CO-630], in data set [1], the HLB number is reported as 13.

Turning to “Polyoxyethylene (9) lauryl ether [Polidocanol]”, the “corrosion and damage to the epithelium” value in data set [2] (corneal epithelium) was “do not cause damage to the epithelium; also recorded: less corrosive and damaging to the epithelium than BAC”. In data set [2] (setting [3]), the “enhancing permeability and generating cross-linking activity, compared with other surfactants” value was “more effective than many other surfactants”; the “enhancing permeability in the epithelium and generating cross-linking activity, compared with BAC” value was “far more effective and efficient than BAC”.

(Values after patent US12214039B2, “Systems and methods for treatments of an eye with a photosensitizer” (Avedro, Inc., priority 2015, dated 2025).)
